# Test results published in ChEMBL document CHEMBL5729116, “hTRPV1 chemical agents” (2022).
# Molecular target: Transient receptor potential cation channel subfamily V member 1 (Homo sapiens, UniProt Q8NER1)
# Assay: RTX Competition Binding Assay.: Binding studies with [3H]RTX were carried out as follows. The binding assay mixtures were prepared in 1.5 ml centrifuge tubes and consisted of a fixed concentration (approximately 2 nM) of [3H]RTX (37 Ci/mmol specific activity, PerkinElmer Life Sciences), various concentrations of competing ligands, and […] of membranes from induced CHO-hTRPV1 expressing cells (approximately 1-3×10^6 cells) in Dulbecco's phosphate buffered saline (DPBS, with Ca2+ & Mg2+) for a total volume of 350 μl. The assay mix contained bovine serum albumin at a final concentration of 0.25 mg/ml (Cohn fraction V; Sigma-Aldrich, St. Louis, Mo.). In each set of experiments, nonspecific binding were determined in the presence of 200 nM non-radioactive RTX. The binding reaction was initiated by placing the assay mixture in a 37° C. shaking water bath for 60 minutes (−30 rpm). The assay mixture was then chilled on ice for 2-3 min before adding 100 μl of α1-acid glycoprotein (2 mg/ml; Sigma-Aldrich) and mixed thoroughly. The tubes were kept on ice for an additional 10 min. The bound and free ligands were then separated by centrifugation (12,200 rpm for 15 minutes) in a Beckman Coulter centrifuge Allegra 21R. 200 μl of supernatant was collected for determination of free ligand. The remainder was removed by aspiration.
# Sequence of Transient receptor potential cation channel subfamily V member 1 (Q8NER1 whole entry): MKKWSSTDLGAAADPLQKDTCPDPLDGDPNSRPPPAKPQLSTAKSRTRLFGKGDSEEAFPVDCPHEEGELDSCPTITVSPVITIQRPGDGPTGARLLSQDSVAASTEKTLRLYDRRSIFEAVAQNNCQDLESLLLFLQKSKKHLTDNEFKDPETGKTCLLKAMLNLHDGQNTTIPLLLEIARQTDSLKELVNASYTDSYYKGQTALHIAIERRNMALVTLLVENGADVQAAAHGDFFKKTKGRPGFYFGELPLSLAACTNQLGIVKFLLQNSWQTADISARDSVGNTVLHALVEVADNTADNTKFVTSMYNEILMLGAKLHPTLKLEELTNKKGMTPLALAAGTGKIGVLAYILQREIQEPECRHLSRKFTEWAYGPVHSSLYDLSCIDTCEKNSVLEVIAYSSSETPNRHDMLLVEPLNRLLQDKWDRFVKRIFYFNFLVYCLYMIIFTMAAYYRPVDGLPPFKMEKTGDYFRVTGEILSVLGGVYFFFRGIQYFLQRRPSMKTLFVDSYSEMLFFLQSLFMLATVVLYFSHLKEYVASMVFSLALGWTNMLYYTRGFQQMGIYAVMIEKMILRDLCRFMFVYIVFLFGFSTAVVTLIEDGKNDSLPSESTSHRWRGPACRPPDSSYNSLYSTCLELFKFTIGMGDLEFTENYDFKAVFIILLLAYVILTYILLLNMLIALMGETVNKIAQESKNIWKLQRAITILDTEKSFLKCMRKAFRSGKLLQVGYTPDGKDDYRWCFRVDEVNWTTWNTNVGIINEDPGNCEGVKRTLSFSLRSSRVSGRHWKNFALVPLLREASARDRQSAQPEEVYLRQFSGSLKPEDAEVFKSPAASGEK
compound,measurement,value
O=C(Nc1cccc(C(F)(F)F)c1)Nc1ccc([N+](=O)[O-])cc1Cl,Ki,2570 nM
